Assay results from ChEMBL document CHEMBL1795340, “A discovery of novel Mycobacterium tuberculosis pantothenate synthetase inhibitors based on the molecular mechanism of actinomycin D inhibition” (Bioorg Med Chem Lett, 2011).
pIC50, pKi: −log10 of the molar value. Values after ≈ are worked out from the molar mass of the structure shown. Where a name gives a salt, the structure may show the parent alone. Numbered stars: 1 amine (or outer) side, 2 acyl side, 3 side chain; on linkers, the order of the positions; unused ones are H or OH. Bridge positions count the residues as written; N and C are the ends. Square brackets hold non-standard residues; d marks the D form. Peptide text beside a SMILES is read from it. I, II: the chains in the order shown. Actinocin(9to1) = Cc1c2oc3c(C)ccc(C(=O)[*:1])c3nc-2c(C(=O)[*:2])c(N)c1=O; NMeV = CN[C@H](C(=O)O)C(C)C; Sar = CNCC(=O)O

Key:
Pantothenate synthetase [1] = biological target: T1, Pantothenate synthetase (Mycobacterium tuberculosis, UniProt P9WIL5); test: Inhibition of Mycobacterium tuberculosis pantothenate synthetase by high throughput screening method
T1 sequence (P9WIL5 whole entry): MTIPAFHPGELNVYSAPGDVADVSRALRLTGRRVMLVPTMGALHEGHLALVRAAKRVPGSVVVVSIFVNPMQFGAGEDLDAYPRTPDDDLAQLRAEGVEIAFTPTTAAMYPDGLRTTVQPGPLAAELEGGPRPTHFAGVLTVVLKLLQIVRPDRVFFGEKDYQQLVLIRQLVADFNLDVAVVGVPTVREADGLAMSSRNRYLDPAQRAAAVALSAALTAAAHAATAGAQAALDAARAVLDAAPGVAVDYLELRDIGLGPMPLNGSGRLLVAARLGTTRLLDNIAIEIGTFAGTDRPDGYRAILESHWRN

[2] = biological target: T2, Pantothenate synthetase (Mycobacterium tuberculosis) (UniProt P9WIL5); test: Inhibition of Mycobacterium tuberculosis pantothenate synthetase at 50 uM by high throughput screening method relative to control
T2 sequence (whole entry): T1 sequence (P9WIL5 whole entry)

Pantothenate synthetase [3] = biological target: T1, Pantothenate synthetase; test: Competitive inhibition of Mycobacterium tuberculosis pantothenate synthetase using ATP by Dixon plot analysis
Pantothenate synthetase [4] = biological target: T1, Pantothenate synthetase; test: Competitive inhibition of Mycobacterium tuberculosis pantothenate synthetase using beta-alanine by Dixon plot analysis
[5] = system: Mycobacterium tuberculosis; test: Antimycobacterial activity against Mycobacterium tuberculosis H37Rv; type: functional

| SMILES | pIC50 (Pantothenate synthetase [1]) | inhibition [2] | pKi (Pantothenate synthetase [3]) | pKi (Pantothenate synthetase [4]) | MIC [5] |
| --- | --- | --- | --- | --- | --- |
| Cc1c2oc3c(C)ccc(C(=O)N[C@@H]4C(=O)N[C@H](C(C)C)C(=O)N5CCC[C@H]5C(=O)N(C)CC(=O)N(C)[C@@H](C(C)C)C(=O)O[C@@H]4C)c3nc-2c(C(=O)N[C@@H]2C(=O)N[C@H](C(C)C)C(=O)N3CCC[C@H]3C(=O)N(C)CC(=O)N(C)[C@@H](C(C)C)C(=O)O[C@@H]2C)c(N)c1=O [DACTINOMYCIN] (I: T[dV]P[Sar][NMeV] / II: T[dV]P[Sar][NMeV]; ester I:1-I:C, II:1-II:C; linker I:N-II:N via Actinocin(9to1)) | 3.60 | – | – | – | – |
| C=C/C=C/C=C/c1cccc(NNC(=O)CCC(=O)O)c1 | – | 27.1% | – | – | – |
| CCN(CC)CCOC(=O)C(Cc1cccc2ccccc12)CC1CCCO1 (stereo not drawn) [NAFRONYL OXALATE] | 3.40 | – | – | – | – |
| COC(=O)c1cc2c(OCc3ccccc3)cc(N)cc2[nH]1 | 4.65 | 69.4% | 5.85 | 4.71 | 54 µM (≈ 16 µg/mL) |
